Assays:
WT HMGCR = biological target: T1, WT HMGCR (Cricetulus griseus, UniProt P00347); assay: Degradation of transfected wild-type HMGCR (with Insig-1) in CHO-7 cells; type: cell-based; settings: cells co-expressing wild-type HMGCR and Insig-1, 5 h
T1 construct: expressed in transfected cells; host or cells: CHO-7
T1 sequence (P00347 1-887): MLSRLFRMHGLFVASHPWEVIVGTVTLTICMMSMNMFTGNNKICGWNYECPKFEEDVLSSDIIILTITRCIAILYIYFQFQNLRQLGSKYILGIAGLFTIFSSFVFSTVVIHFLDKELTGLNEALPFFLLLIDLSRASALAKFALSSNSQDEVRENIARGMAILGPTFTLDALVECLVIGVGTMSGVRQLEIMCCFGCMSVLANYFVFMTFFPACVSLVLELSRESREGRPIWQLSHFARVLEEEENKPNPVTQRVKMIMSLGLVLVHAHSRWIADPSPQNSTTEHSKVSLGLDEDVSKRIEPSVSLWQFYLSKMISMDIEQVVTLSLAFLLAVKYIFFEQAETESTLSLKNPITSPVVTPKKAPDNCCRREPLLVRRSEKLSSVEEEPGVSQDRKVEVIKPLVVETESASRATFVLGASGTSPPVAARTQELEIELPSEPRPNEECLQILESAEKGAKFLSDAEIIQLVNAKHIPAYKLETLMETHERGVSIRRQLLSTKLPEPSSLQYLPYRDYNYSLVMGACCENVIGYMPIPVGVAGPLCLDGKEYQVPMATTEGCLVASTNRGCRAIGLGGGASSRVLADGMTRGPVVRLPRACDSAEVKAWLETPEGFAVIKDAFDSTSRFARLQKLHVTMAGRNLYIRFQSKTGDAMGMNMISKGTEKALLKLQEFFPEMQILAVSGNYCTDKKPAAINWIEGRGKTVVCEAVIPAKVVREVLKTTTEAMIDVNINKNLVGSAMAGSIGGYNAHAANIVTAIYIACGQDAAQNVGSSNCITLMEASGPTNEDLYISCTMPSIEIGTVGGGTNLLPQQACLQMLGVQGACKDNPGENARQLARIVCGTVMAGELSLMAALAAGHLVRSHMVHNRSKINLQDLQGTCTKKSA
T1 sequence (O15503 1-277 partner): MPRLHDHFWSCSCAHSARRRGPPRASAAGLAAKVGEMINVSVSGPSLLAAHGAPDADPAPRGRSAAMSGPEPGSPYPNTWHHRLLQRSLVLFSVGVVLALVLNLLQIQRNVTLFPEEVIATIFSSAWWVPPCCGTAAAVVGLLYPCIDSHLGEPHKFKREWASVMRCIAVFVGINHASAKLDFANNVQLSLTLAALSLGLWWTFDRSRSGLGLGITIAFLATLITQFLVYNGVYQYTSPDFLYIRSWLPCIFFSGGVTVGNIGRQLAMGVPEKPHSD
Description: HMGCR protein of DMSO-treated cells was defined as 100. […] Lysates were immunoprecipitated and pellets were probed for anti-ubiquitin (P4D1) and anti-HMGCR (A9). e CHO-7 cells were transfected with indicated plasmids and treated as in d. Lysates were immunoprecipitated with anti-Flag M2 beads, and pellets were probed for anti-ubiquitin (HA) and anti-HMGCR (Flag). f CHO-7 cells were transfected with indicated plasmids, then treated with Cmpd 81 for 5 h. […] Data are from three independent experiments and presented as mean ± SD. Source data are provided as a Source Data File.
Cells were harvested and homogenized in the RIPA buffer (50 mM Tris-HCl, pH 8.0, 150 mM NaCl, 2 mM MgCl2, 1.5% NP-40, 0.1% SDS, and 0.5% sodium deoxycholate) supplemented with protease cocktail inhibitor, 10 μM MG-132, 10 μg ml^−1 leupeptin and 1 mM phenylmethylsulfonyl fluoride. The protein concentrations of lysates were determined using BCA method (Beyotime). […] Western blot images were captured by Amersham Imager 600 (GE Healthcare), and integrated optical intensities of each band were quantified by Image-Pro Plus 6 software (Media Cybernetics). […]

HMGCR (TM1-8)-GFP = biological target: T2, HMGCR (TM1-8)-GFP (Cricetulus griseus, UniProt P00347); assay: HMGCR (TM1-8)-GFP fluorescent assay (high-content imaging) in CHG cells; settings: for Mean (HMGCR (TM1-8)-GFP signal relative to 0 μM = 100): Figure 4 source data
T2 sequence (P00347 1-346): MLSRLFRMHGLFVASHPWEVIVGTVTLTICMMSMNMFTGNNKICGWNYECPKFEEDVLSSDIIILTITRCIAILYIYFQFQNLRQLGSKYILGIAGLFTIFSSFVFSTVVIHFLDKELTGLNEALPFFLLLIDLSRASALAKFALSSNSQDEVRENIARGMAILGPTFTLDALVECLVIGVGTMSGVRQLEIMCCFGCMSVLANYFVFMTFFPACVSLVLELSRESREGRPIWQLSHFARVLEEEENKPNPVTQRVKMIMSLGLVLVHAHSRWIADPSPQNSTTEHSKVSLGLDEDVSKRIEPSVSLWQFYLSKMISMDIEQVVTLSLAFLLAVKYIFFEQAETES

## C=CCC(O)(CC=C)CCCC(C)C1CCC2C3C(O)C=C4C(C)(C)C(O)CCC4(C)C3CCC12C (stereo not shown) [Cmpd 81]
WT HMGCR
  protein level of transfected wild-type HMGCR: a reduction of the protein level
HMGCR (TM1-8)-GFP; compound 0.156 μM
  Mean (HMGCR (TM1-8)-GFP signal relative to 0 μM = 100): 80.6979
HMGCR (TM1-8)-GFP; compound 0.313 μM
  Mean (HMGCR (TM1-8)-GFP signal relative to 0 μM = 100): 58.3802
HMGCR (TM1-8)-GFP; compound 0.625 μM
  Mean (HMGCR (TM1-8)-GFP signal relative to 0 μM = 100): 35.2515
HMGCR (TM1-8)-GFP; compound 1.25 μM
  Mean (HMGCR (TM1-8)-GFP signal relative to 0 μM = 100): 17.0524
HMGCR (TM1-8)-GFP; compound 2.5 μM
  Mean (HMGCR (TM1-8)-GFP signal relative to 0 μM = 100): 14.0516
HMGCR (TM1-8)-GFP; compound 5 μM
  Mean (HMGCR (TM1-8)-GFP signal relative to 0 μM = 100): 2.6212
HMGCR (TM1-8)-GFP; compound 10 μM
  Mean (HMGCR (TM1-8)-GFP signal relative to 0 μM = 100): 2.9162
HMGCR (TM1-8)-GFP; more potent than 24,25-DHL
  potency (EC50) relative to 24,25-DHL: ~4 fold
HMGCR (TM1-8)-GFP; more potent than cholesterol
  potency (EC50) relative to cholesterol: approximately 74 fold
